From US9029360B2, “Pyrazolopyrimidines as metabotropic glutamate 5 receptor antagonists” (Boehringer Ingelheim International GmbH, priority 2012, dated 2015)

Assays:
human mGlu5a receptor = human mGlu5a receptor (Homo sapiens (Human), UniProt P41594); assay: mGlu5 NAM FLIPR Assay (Assay 1); assay type: cell-based; details: for IC50: HEK293 cells stably expressing human mGlu5a, antagonism of EC90 glutamate, [Ca]i
Protocol: A. mGlu5 NAM FLIPR Assay (Assay 1)
Activation of the mGluR5 receptor expressed in cell lines results in an increase in intracellular calcium concentration. Using calcium sensitive fluorescent dyes and a suited fluorescence plate reader this functional response is detectable and quantifiable. This technique could be used to characterize pharmacological modifications of the mGluR5 receptor.
[Ca]i measurements were performed in HEK293 cells stably expressing the full-length human mGlu5a receptor under the control of a tet-regulated promoter. Cells were cultivated in Dulbecco's modified eagle's medium (DMEM) with 10% fetal calf serum, 100 μg/ml HygromycinB, 500 μg/ml G418 and 2 μg/ml Tetracycline in a 37°, 95% humidity and 5% CO2 incubator. Confluent cell cultures were split on a bi-weekly schedule.
72 hours prior to the assay run mGluR5a expression was induced by replacing the culture medium by DMEM with 10% fetal calf serum without antibiotics. 24 hours prior to the assay run, cell medium was replaced after two wash steps by DMEM, 10% fetal calf serum without glutamine and phenol red. On the assay day, cells were detached from the culture flask by versene, washed, resuspended in a modified Ringer solution with 5 mM Glucose and 10 mM HEPES pH7.4, and plated on Poly-D-Lysine coated 384-well plates with a density of 10.000 cells/60 μl per well. After a seeding time of 1 hour in the incubator the cells were dye-loaded by adding 20 μl of a 4-fold concentrated dye solution from the Calcium 4 kit (Molecular Devices Inc., R8141) according to the manufacturer's manual and incubated for an additional 100 minutes. Compounds were prepared by a 11 point serial dilution in DMSO and a final dilution step into assay puffer (modified Ringer) to ensure a final DMSO concentration of 1% in the assay.
Measurements were done in a two-step procedure. A first measurement was performed directly after the addition of compounds to the cell plates to quantify and correct for compound related non specific effects (e.g. auto fluorescence). 5 minutes later, the antagonistic activities of the compounds were measured by addition of a EC90 concentration of the agonist glutamate (the EC90 concentration was controlled by glutamate dose-response curves). All measurements were done with a fluorimetric imaging plate reader (FLIPR, Molecular Devices Inc.).
IC50 values and Hill slopes were derived from 11-point four parametric non-linear curve fittings with the AssayExplorer software using peak heights of fluorescence signals.

11β-HSD1 = 11β-HSD1 (Homo sapiens (Human), UniProt P28845); assay: 11β-hydroxysteroid dehydrogenase (HSD) 1 Assay (Assay 2), HTRF; assay type: biochemical; details: for IC50: human liver microsomes, cortisol generated from cortisone, HTRF, read-out: 11βHSD1 IC50
Protocol: The compounds of this invention or the physiological acceptable salts thereof were tested for their inhibitory effect on the enzyme 11β-hydroxysteroid dehydrogenase (HSD) 1.
B. 11β-hydroxysteroid dehydrogenase (HSD) 1 Assay (Assay 2)
Compounds were incubated for 1 hour at 37° C. in Tris buffer (20 mM tris, 5 mM EDTA, pH 6.0) containing NADPH (200 μM) and cortisone (80 nM). Cortisol generated in the reaction was then detected by a competitive immunoassay involving two HTRF conjugates: cortisol linked to XL665 and anticortisol antibody labeled with Europium cryptate. The incubation period for detection reaction was 2 hours. The amount of cortisol is determined by reading the time-resolved fluorescence of the wells (Ex 320/75 nm; Em 615/8.5 nm and 665/7.5 nm). The ratio of the two emission signals was then calculated (Em665*10000/Em615). […] Each assay also comprised a calibration curve with cortisol to transform the fluorescent data into cortisol concentrations.
Percent inhibition (% CTL) of each compound is determined relative to the carbenoxolone signal and IC50 curves were generated.

Sequence of 11β-HSD1 (P28845 whole entry): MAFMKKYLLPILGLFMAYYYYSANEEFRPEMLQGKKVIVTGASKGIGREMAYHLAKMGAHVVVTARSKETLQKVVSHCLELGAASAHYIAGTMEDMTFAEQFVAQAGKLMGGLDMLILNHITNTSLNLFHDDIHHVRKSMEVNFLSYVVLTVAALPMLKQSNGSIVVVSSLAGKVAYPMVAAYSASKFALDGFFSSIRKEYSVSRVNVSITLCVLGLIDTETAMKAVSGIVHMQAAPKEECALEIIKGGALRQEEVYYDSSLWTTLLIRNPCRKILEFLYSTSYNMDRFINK
Sequence of human mGlu5a receptor (P41594 other isoform, or with tags, fused parts or gaps): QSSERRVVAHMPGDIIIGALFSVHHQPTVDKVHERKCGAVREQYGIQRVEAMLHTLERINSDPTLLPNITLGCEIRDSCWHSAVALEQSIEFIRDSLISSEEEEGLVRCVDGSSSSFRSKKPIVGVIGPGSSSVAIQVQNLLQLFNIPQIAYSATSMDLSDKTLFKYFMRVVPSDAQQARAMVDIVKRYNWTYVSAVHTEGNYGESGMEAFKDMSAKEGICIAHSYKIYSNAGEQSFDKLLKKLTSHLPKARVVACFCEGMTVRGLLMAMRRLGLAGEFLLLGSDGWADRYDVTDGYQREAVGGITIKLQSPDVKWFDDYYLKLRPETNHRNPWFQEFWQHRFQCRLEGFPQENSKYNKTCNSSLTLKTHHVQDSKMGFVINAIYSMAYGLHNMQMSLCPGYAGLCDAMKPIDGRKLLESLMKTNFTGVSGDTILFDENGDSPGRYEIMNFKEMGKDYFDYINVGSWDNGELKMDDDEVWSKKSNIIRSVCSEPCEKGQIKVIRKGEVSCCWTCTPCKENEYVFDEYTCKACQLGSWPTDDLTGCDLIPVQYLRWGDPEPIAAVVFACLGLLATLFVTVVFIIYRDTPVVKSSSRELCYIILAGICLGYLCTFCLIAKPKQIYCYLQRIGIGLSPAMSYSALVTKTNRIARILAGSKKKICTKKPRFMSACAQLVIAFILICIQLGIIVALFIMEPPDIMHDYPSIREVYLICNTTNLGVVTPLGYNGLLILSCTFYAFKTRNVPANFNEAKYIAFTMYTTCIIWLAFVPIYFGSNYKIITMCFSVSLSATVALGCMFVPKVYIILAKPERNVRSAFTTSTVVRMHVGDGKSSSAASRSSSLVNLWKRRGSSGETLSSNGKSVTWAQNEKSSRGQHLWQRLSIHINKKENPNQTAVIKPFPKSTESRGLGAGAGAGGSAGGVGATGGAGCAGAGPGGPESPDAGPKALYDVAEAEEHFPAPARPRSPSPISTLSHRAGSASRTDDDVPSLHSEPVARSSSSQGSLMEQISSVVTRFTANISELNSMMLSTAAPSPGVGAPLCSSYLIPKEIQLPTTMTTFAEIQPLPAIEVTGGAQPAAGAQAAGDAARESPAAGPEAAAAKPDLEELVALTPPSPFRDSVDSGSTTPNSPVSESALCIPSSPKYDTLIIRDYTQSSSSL

Compound: O=C(c1cc2ncc(Br)cn2n1)N1CCCC1 [A, reference compound]
- activity in assay 1 (mGlu5), in words (human mGlu5a receptor): inactivity
- IC50 (human mGlu5a receptor): > 10000 nM
- activity on 11βHSD1 (assay 2), in words (11β-HSD1): inactivity

Compound: O=C(c1cc2ncc(Br)cn2n1)N1CCCCCC1 [B, reference compound]
- activity in assay 1 (mGlu5), in words (human mGlu5a receptor): inactivity
- IC50 (human mGlu5a receptor): > 10000 nM
- activity on 11βHSD1 (assay 2), in words (11β-HSD1): inactivity
- IC50 (11β-HSD1): > 10000 nM

Compound: COc1ccc(-c2cc(C(F)(F)F)n3nc(C(=O)N4CCc5ncsc5CC4)cc3n2)cc1 [C, reference compound]
- IC50 (human mGlu5a receptor): > 10000 nM
- IC50 (11β-HSD1): > 10000 nM

Compound: Cc1cc(C(F)(F)F)n2nc(C(=O)N3CCc4ncsc4CC3)cc2n1 [D, reference compound]
- IC50 (human mGlu5a receptor): > 10000 nM
- IC50 (11β-HSD1): > 10000 nM

Compound: COc1cccc(-c2cc(C(F)(F)F)n3nc(C(=O)N4CCc5ncsc5CC4)cc3n2)c1 [E, reference compound]
- IC50 (human mGlu5a receptor): > 10000 nM
- IC50 (11β-HSD1): > 10000 nM

Compound: O=C(c1cc2ncc(Br)cn2n1)N1CCc2ccc(Cl)nc2CC1 [Example 1, (6-Bromo-pyrazolo[1,5-a]pyrimidin-2-yl)-(2-chloro-5,6,8,9-tetrahydro-pyrido[2,3-d]azepin-7-yl)-methanone]
- IC50 (human mGlu5a receptor): 146 nM
- IC50 (11β-HSD1): > 10000 nM

Compound: COc1ccc2c(n1)CCN(C(=O)c1cc3ncc(Br)cn3n1)CC2 [Example 2, (6-Bromo-pyrazolo[1,5-a]pyrimidin-2-yl)-(2-methoxy-5,6,8,9-tetrahydro-pyrido[2,3-d]azepin-7-yl)-methanone]
- IC50 (human mGlu5a receptor): 230 nM
- IC50 (11β-HSD1): > 10000 nM

Compound: O=C(c1cc2ncc(Br)cn2n1)N1CCc2ccsc2CC1 [Example 3, (6-Bromo-pyrazolo[1,5-a]pyrimidin-2-yl)-(4,5,7,8-tetrahydro-thieno[2,3-d]azepin-6-yl)-methanone]
- IC50 (human mGlu5a receptor): 1380 nM
- IC50 (11β-HSD1): > 10000 nM

Compound: CCc1nc2c(s1)CCN(C(=O)c1cc3ncc(Br)cn3n1)CC2 [Example 4, (6-Bromo-pyrazolo[1,5-a]pyrimidin-2-yl)-(2-ethyl-4,5,7,8-tetrahydro-thiazolo[4,5-d]azepin-6-yl)-methanone]
- IC50 (human mGlu5a receptor): 33 nM
- IC50 (11β-HSD1): > 10000 nM

Compound: O=C(c1cc2ncc(Br)cn2n1)N1CCCCC1 [Example 4-21, reference compound]
- IC50 (human mGlu5a receptor): > 10000 nM
- IC50 (11β-HSD1): > 10000 nM

Compound: O=C(c1cc2ncc(Br)cn2n1)N1CCOCC1 [Example 4-22, reference compound]
- IC50 (human mGlu5a receptor): > 10000 nM
- IC50 (11β-HSD1): > 10000 nM

Compound: O=C(c1cc2ncc(Br)cn2n1)N1CCc2ncsc2CC1 [Example 5, (6-Bromo-pyrazolo[1,5-a]pyrimidin-2-yl)-(4,5,7,8-tetrahydro-thiazolo[4,5-d]azepin-6-yl)-methanone]
- IC50 (human mGlu5a receptor): 110 nM
- IC50 (11β-HSD1): > 10000 nM

Compound: O=C(c1cc2ncc(Br)cn2n1)N1CCc2cc(Cl)nnc2CC1 [Example 7, (6-Bromo-pyrazolo[1,5-a]pyrimidin-2-yl)-(3-chloro-5,6,8,9-tetrahydro-1,2,7-triaza-benzocyclohepten-7-yl)-methanone]
- IC50 (human mGlu5a receptor): 340 nM
- IC50 (11β-HSD1): > 10000 nM

Compound: COCc1nc2c(s1)CCN(C(=O)c1cc3ncc(Br)cn3n1)CC2 [Example 8, (6-Bromo-pyrazolo[1,5-a]pyrimidin-2-yl)-(2-methoxymethyl-4,5,7,8-tetrahydro-thiazolo[4,5-d]azepin-6-yl)-methanone]
- IC50 (human mGlu5a receptor): 1540 nM
- IC50 (11β-HSD1): > 10000 nM

Compound: Cc1cnc2cc(C(=O)N3CCc4ncsc4CC3)nn2c1 [Example 9]
- IC50 (human mGlu5a receptor): 1420 nM
- IC50 (11β-HSD1): > 10000 nM

Compound: O=C(c1cc2ncc(Cl)cn2n1)N1CCc2ncsc2CC1 [Example 10, (6-Chloro-pyrazolo[1,5-a]pyrimidin-2-yl)-(4,5,7,8-tetrahydro-thiazolo[4,5-d]azepin-6-yl)-methanone]
- IC50 (human mGlu5a receptor): 59 nM
- IC50 (11β-HSD1): > 10000 nM

Compound: O=C(c1cc2ncc(Br)cn2n1)N1CCc2[nH]c(=O)sc2CC1 [Example 11, 6-(6-Bromo-pyrazolo[1,5-a]pyrimidine-2-carbonyl)-3,4,5,6,7,8-hexahydro-thiazolo[4,5-d]azepin-2-one]
- IC50 (human mGlu5a receptor): 66 nM
- IC50 (11β-HSD1): > 10000 nM

Compound: CC(C)c1nc2c(s1)CCN(C(=O)c1cc3ncc(Br)cn3n1)CC2 [Example 12, (6-Bromo-pyrazolo[1,5-a]pyrimidin-2-yl)-(2-isopropyl-4,5,7,8-tetrahydro-thiazolo[4,5-d]azepin-6-yl)-methanone]
- IC50 (human mGlu5a receptor): 148 nM
- IC50 (11β-HSD1): > 10000 nM

Compound: Cc1nc2c(s1)CCN(C(=O)c1cc3ncc(Cl)cn3n1)CC2 [Example 13, (6-Chloro-pyrazolo[1,5-a]pyrimidin-2-yl)-(2-methyl-4,5,7,8-tetrahydro-thiazolo[4,5-d]azepin-6-yl)-methanone]
- IC50 (human mGlu5a receptor): 63 nM
- IC50 (11β-HSD1): > 10000 nM

Compound: O=C(c1cc2ncc(Br)cn2n1)N1CCc2cccnc2CC1 [Example 14, (6-Bromo-pyrazolo[1,5-a]pyrimidin-2-yl)-(5,6,8,9-tetrahydro-pyrido[2,3-d]azepin-7-yl)-methanone]
- IC50 (human mGlu5a receptor): 603 nM
- IC50 (11β-HSD1): > 10000 nM

Compound: Cn1cnc2c1CCN(C(=O)c1cc3ncc(Br)cn3n1)CC2 [Example 15, (6-Bromo-pyrazolo[1,5-a]pyrimidin-2-yl)-(1-methyl-4,5,7,8-tetrahydro-1H-imidazo[4,5-d]azepin-6-yl)-methanone]
- IC50 (human mGlu5a receptor): 692 nM
- IC50 (11β-HSD1): > 10000 nM

Compound: Cn1c2c(sc1=O)CCN(C(=O)c1cc3ncc(Br)cn3n1)CC2 [Example 16, 6-(6-Bromo-pyrazolo[1,5-a]pyrimidine-2-carbonyl)-3-methyl-3,4,5,6,7,8-hexahydro-thiazolo[4,5-d]azepin-2-one]
- IC50 (human mGlu5a receptor): 1280 nM
- IC50 (11β-HSD1): > 10000 nM

Compound: Cn1c2c(c3ccccc31)CCN(C(=O)c1cc3ncc(Br)cn3n1)CC2 [Example 17, (6-Bromo-pyrazolo[1,5-a]pyrimidin-2-yl)-(6-methyl-1,4,5,6-tetrahydro-2H-azepino[4,5-b]indol-3-yl)-methanone]
- IC50 (human mGlu5a receptor): 550 nM
- IC50 (11β-HSD1): > 10000 nM

Compound: CC(C)c1nc2c(s1)CCN(C(=O)c1cc3ncc(Cl)cn3n1)CC2 [Example 18, (6-Chloro-pyrazolo[1,5-a]pyrimidin-2-yl)-(2-isopropyl-4,5,7,8-tetrahydro-thiazolo[4,5-d]azepin-6-yl)-methanone]
- IC50 (human mGlu5a receptor): 235 nM

Compound: O=C(c1cc2ncc(Cl)cn2n1)N1CCc2[nH]c(=O)sc2CC1 [Example 19, 6-(6-Chloro-pyrazolo[1,5-a]pyrimidine-2-carbonyl)-3,4,5,6,7,8-hexahydro-thiazolo[4,5-d]azepin-2-one]
- IC50 (human mGlu5a receptor): 128 nM

Compound: (6-Bromo-pyrazolo[1,5-a]pyrimidin-2-yl)-(2-methyl-4,5,7,8-tetrahydro-3H-1lambda*4*-thiazolo[4,5-d]azepin-6-yl)-methanone [Example 6]
- IC50 (human mGlu5a receptor): 43 nM
- IC50 (11β-HSD1): > 10000 nM
